Patent publication US5858992A, “Non-reducing saccharides, their preparation and use” (Kabushiki Kaisha Hayashibara Seibutsu Kagaku Kenkyujo, priority 1995, dated 1999)

Legend:
[1] = Maillard reaction (coloration with glycine); format: physicochemical; settings: 10 w/v % saccharide, one w/v % glycine, 50 mM phosphate buffer pH 7.0, 100° C. for 90 min, 1-cm light-path cell
[2] = system: Bifidobacterium adolescentis JCM 1275; assay: Assimilation test by intestinal microorganism; format: cell-based; settings: 0.5 w/v % saccharide in PYF broth, 37° C., 96 hours; free of sugar: -
[3] = system: Bifidobacterium animalis JCM 1190; assay: Assimilation test by intestinal microorganism; format: cell-based; settings: 0.5 w/v % saccharide in PYF broth, 37° C., 96 hours; free of sugar: -
[4] = system: Bifidobacterium bifidum JCM 1255; assay: Assimilation test by intestinal microorganism; format: cell-based; settings: 0.5 w/v % saccharide in PYF broth, 37° C., 96 hours; free of sugar: -
[5] = system: Bifidobacterium breve JCM 1192; assay: Assimilation test by intestinal microorganism; format: cell-based; settings: 0.5 w/v % saccharide in PYF broth, 37° C., 96 hours; free of sugar: -
[6] = system: Bifidobacterium infantis JCM 1222; assay: Assimilation test by intestinal microorganism; format: cell-based; settings: 0.5 w/v % saccharide in PYF broth, 37° C., 96 hours; free of sugar: -
[7] = system: Bifidobacterium longum JCM 1217; assay: Assimilation test by intestinal microorganism; format: cell-based; settings: 0.5 w/v % saccharide in PYF broth, 37° C., 96 hours; free of sugar: -
[8] = system: Lactobacillus fermentum IFO 3959; assay: Assimilation test by intestinal microorganism; format: cell-based; settings: 0.5 w/v % saccharide in PYF broth, 37° C., 96 hours; free of sugar: -
[9] = system: Lactobacillus plantarum IFO 3070; assay: Assimilation test by intestinal microorganism; format: cell-based; settings: 0.5 w/v % saccharide in PYF broth, 37° C., 96 hours; free of sugar: -
[10] = system: Eubacterium aerofaciens ATCC 25986; assay: Assimilation test by intestinal microorganism; format: cell-based; settings: 0.5 w/v % saccharide in PYF broth, 37° C., 96 hours; free of sugar: -
[11] = system: Bacteroides distasonis JCM 5825; assay: Assimilation test by intestinal microorganism; format: cell-based; settings: 0.5 w/v % saccharide in PYF broth, 37° C., 96 hours; free of sugar: -
[12] = system: Bacteroides vulgatus JCM 5826; assay: Assimilation test by intestinal microorganism; format: cell-based; settings: 0.5 w/v % saccharide in PYF broth, 37° C., 96 hours; free of sugar: -
[13] = system: Bacteroides uniformis JCM 5828; assay: Assimilation test by intestinal microorganism; format: cell-based; settings: 0.5 w/v % saccharide in PYF broth, 37° C., 96 hours; free of sugar: -
[14] = system: Clostridium perfringens JCM 3816; format: cell-based; settings: 0.5 w/v % saccharide in PYF broth, 37° C., 96 hours; free of sugar: -
[15] = system: Clostridium ramosum JCM 1298; assay: Assimilation test by intestinal microorganism; format: cell-based; settings: 0.5 w/v % saccharide in PYF broth, 37° C., 96 hours; free of sugar: -
[16] = system: Clostridium sporogenes JCM 1416; assay: Assimilation test by intestinal microorganism; format: cell-based; settings: 0.5 w/v % saccharide in PYF broth, 37° C., 96 hours; free of sugar: ±
Experimental: To evaluate the growth rate of and to judge the assimilability by the microorganisms, the resultant broth was diluted 5-fold, and the turbidity of the dilution was measured at a wavelength of 750 nm in a 1-cm light-path cell. […] The criteria were in Table 3, and the results were in Tables 4 and 5: […]

[17] = system: Streptococcus faecalis IAM 10065; assay: Assimilation test by intestinal microorganism; format: cell-based; settings: 0.5 w/v % saccharide in PYF broth, 37° C., 96 hours; free of sugar: -
[18] = system: Peptostreptococcus prevotii ATCC 9321; assay: Assimilation test by intestinal microorganism; format: cell-based; settings: 0.5 w/v % saccharide in PYF broth, 37° C., 96 hours; free of sugar: -
[19] = system: Escherichia coli IFO 3301; assay: Assimilation test by intestinal microorganism; format: cell-based; settings: 0.5 w/v % saccharide in PYF broth, 37° C., 96 hours; free of sugar: -
[20] = molecular target: T1, Salivary amylase (Homo sapiens, UniProt P0DUB6); assay: in vitro
T1 sequence (P0DUB6 16-511): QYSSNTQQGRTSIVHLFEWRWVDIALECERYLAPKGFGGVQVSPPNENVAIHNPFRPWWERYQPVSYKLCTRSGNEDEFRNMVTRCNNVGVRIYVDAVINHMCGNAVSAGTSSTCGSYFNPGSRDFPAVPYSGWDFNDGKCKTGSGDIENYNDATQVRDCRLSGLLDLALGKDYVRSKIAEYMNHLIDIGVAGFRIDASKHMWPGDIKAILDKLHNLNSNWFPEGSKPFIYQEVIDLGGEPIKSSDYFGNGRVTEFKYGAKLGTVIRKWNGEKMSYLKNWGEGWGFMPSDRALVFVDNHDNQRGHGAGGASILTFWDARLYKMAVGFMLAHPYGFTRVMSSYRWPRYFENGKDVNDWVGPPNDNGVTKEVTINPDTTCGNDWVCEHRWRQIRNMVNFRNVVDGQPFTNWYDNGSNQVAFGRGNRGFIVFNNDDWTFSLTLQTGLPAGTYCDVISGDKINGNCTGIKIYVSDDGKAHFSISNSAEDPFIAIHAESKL

[21] = in vitro; settings: gastric acid
[22] = molecular target: T2, Pancreatic juice amylase (Homo sapiens, UniProt P04746); assay: in vitro
T2 sequence (P04746 16-511): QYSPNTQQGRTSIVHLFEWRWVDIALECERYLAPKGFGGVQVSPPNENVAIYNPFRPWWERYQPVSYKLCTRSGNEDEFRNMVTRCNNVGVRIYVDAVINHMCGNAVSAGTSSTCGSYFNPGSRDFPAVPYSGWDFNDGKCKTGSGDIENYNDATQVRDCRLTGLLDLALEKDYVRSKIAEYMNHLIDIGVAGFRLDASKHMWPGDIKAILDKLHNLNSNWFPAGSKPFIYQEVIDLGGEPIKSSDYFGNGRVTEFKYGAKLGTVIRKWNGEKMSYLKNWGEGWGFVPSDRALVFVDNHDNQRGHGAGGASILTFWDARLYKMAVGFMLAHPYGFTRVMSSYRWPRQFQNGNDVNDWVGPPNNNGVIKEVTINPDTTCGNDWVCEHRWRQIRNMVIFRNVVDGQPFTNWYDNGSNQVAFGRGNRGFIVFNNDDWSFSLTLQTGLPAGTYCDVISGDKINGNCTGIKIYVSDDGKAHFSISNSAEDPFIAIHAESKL

[23] = system: Streptococcus sobrinus ATCC 27351; assay: Acid formation by dental caries-inducing microorganisms; settings: for pH at each fermentation time (min): living wet cells, 0.02M saccharide, Stephen buffer pH 7.0, 37° C.
[24] = system: Clostridium butyricum JCM 1391; format: cell-based; settings: 0.5 w/v % saccharide in PYF broth, 37° C., 96 hours; free of sugar: -
[25] = system: glucosyltransferase; assay: Inhibition of insoluble glucan formation by glucosyltransferase from dental caries-inducing microorganism; format: biochemical, Streptococcus sobrinus strain (ATCC 27351); settings: sucrose plus test saccharide (one ml of one w/v % each), 37° C., 16 hours
Experimental: To a mixture solution consisting of one ml of one w/v % sucrose solution, one ml of one w/v % of a test saccharide solution, and 1.5 ml of 0.1M phosphate buffer (pH 6.8) was added 0.5 ml solution containing a crude glucosyltransferase specimen in a total protein content of 10 mg, and the mixture solution was placed in a small test tube which was then fixed and slanted to give a grade 30 degrees and allowed to react at 37° C. for 16 hours. The reaction mixture was transferred gently to another test tube and mixed with a solution obtained by washing carefully with 4 ml water the remaining substances adhered to the inner walls of the small test tube, and the mixture solution was centrifuged to obtain a precipitate as a non-adsorbed glucan. The amounts of the adsorbed- and non-adsorbed glucans thus obtained were respectively quantified by the anthrone-sulfuric acid method, and the total amount of them was regarded as the amount of the formed insoluble glucans. As a control system, a reaction system using water in place of the test saccharide solution, i.e. a reaction system using sucrose as a saccharide, was provided.

[26] = in vitro; settings: small intestinal mucosa enzyme

SMILES | Coloration degree (at a wavelength of 480 nm) [1] | Judgement of assimilation (turbidity at 750 nm, ×5) [2] | Judgement of assimilation (turbidity at 750 nm, ×5) [3] | Judgement of assimilation (turbidity at 750 nm, ×5) [4] | Judgement of assimilation (turbidity at 750 nm, ×5) [5] | Judgement of assimilation (turbidity at 750 nm, ×5) [6] | Judgement of assimilation (turbidity at 750 nm, ×5) [7] | Judgement of assimilation (turbidity at 750 nm, ×5) [8] | Judgement of assimilation (turbidity at 750 nm, ×5) [9] | Judgement of assimilation (turbidity at 750 nm, ×5) [10] | Judgement of assimilation (turbidity at 750 nm, ×5) [11] | Judgement of assimilation (turbidity at 750 nm, ×5) [12] | Judgement of assimilation (turbidity at 750 nm, ×5) [13] | Judgement of assimilation (turbidity at 750 nm, ×5) [14] | Judgement of assimilation (turbidity at 750 nm, ×5) [15] | Judgement of assimilation (turbidity at 750 nm, ×5) [17] | Judgement of assimilation (turbidity at 750 nm, ×5) [18] | Judgement of assimilation (turbidity at 750 nm, ×5) [19] | metabolised [20] | metabolised [22] | also measured
OC[C@H]1O[C@H](OC[C@H]2OC(O)[C@H](O)[C@@H](O)[C@@H]2O)[C@H](O)[C@@H](O)[C@@H]1O (stereo partly shown) [Isomaltose, reference compound] | 0.938 | +++ (0.3 or higher) | +++ (0.3 or higher) | + (0.15 or higher but less than 0.2) | +++ (0.3 or higher) | +++ (0.3 or higher) | ++ (0.2 or higher but less than 0.3) | - (Less than 0.1) | - (Less than 0.1) | + (0.15 or higher but less than 0.2) | + (0.15 or higher but less than 0.2) | - (Less than 0.1) | - (Less than 0.1) | ± (0.1 or higher but less than 0.15) | - (Less than 0.1) | + (0.15 or higher but less than 0.2) | - (Less than 0.1) | - (Less than 0.1) | 0% | 0.2% | Judgement of assimilation (turbidity at 750 nm, ×5) [16]: ± (0.1 or higher but less than 0.15); degraded [21]: 0%; pH reduction / acid fermentation, in words [23]: slight; pH at each fermentation time (min) ([23]; 0 min): 7.0; pH at each fermentation time (min) ([23]; 5 min): 7.0; pH at each fermentation time (min) ([23]; 15 min): 6.9; pH at each fermentation time (min) ([23]; 30 min): 6.9; pH at each fermentation time (min) ([23]; 60 min): 6.8; pH at each fermentation time (min) ([23]; 90 min): 6.7
OC[C@H]1O[C@H](O[C@H]2O[C@H](CO)[C@@H](O)[C@H](O)[C@H]2O)[C@H](O)[C@@H](O)[C@@H]1O [Trehalose, α,α-trehalose, reference compound] | 0.007 | + (0.15 or higher but less than 0.2) | + (0.15 or higher but less than 0.2) | + (0.15 or higher but less than 0.2) | - (Less than 0.1) | - (Less than 0.1) | ++ (0.2 or higher but less than 0.3) | + (0.15 or higher but less than 0.2) | ++ (0.2 or higher but less than 0.3) | - (Less than 0.1) | ++ (0.2 or higher but less than 0.3) | + (0.15 or higher but less than 0.2) | ++ (0.2 or higher but less than 0.3) | +++ (0.3 or higher) | + (0.15 or higher but less than 0.2) | + (0.15 or higher but less than 0.2) | + (0.15 or higher but less than 0.2) | - (Less than 0.1) | 0% | 0% | Judgement of assimilation (turbidity at 750 nm, ×5) [24]: +++ (0.3 or higher); Yield of non-adsorbed glucans ([25]; sucrose alone control 923): 1,130 pg/ml; Yield of adsorbed glucans ([25]; sucrose alone control 1,160): 772 pg/mL; Inhibitory percentage (%) on insoluble glucans formation ([25]; vs sucrose alone): 8.7%; metabolised [26]: 1.3%; pH reduction / acid fermentation, in words [23]: moderate; pH at each fermentation time (min) ([23]; 0 min): 7.0; pH at each fermentation time (min) ([23]; 5 min): 6.7; pH at each fermentation time (min) ([23]; 15 min): 5.3; pH at each fermentation time (min) ([23]; 30 min): 4.7; pH at each fermentation time (min) ([23]; 60 min): 4.3; pH at each fermentation time (min) ([23]; 90 min): 4.2
